The target of series [1] is Free fatty acid receptor 1 (Homo sapiens, UniProt O14842). The experiment in a line: Agonist activity at human FFA1 expressed in CHO cells measured by FLIPR assay. In kind it is functional, cell-based.
Series [2] addresses T1, Peroxisome proliferator-activated receptor alpha (Homo sapiens, UniProt Q07869).
T1 sequence (Q07869 whole entry): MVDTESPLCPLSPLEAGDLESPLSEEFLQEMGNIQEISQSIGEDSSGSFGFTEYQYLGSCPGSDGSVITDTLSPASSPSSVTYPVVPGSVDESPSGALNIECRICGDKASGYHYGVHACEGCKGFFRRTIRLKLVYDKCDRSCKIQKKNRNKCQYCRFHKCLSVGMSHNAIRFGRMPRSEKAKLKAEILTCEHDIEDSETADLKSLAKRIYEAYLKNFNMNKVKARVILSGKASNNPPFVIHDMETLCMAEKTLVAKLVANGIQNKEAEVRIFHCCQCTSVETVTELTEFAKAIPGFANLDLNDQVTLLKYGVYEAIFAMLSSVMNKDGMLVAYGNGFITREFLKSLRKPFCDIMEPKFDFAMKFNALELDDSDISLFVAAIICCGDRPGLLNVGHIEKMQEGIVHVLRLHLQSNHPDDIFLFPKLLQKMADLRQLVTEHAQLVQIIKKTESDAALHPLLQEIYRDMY
The experiment in a line: Agonist activity at human PPARalpha measured by dual luciferase reporter gene assay. (A reporter such as luciferase makes a cellular process visible.)

Series [3] addresses T2, Peroxisome proliferator-activated receptor delta (Homo sapiens, UniProt Q03181).
T2 sequence (Q03181 whole entry): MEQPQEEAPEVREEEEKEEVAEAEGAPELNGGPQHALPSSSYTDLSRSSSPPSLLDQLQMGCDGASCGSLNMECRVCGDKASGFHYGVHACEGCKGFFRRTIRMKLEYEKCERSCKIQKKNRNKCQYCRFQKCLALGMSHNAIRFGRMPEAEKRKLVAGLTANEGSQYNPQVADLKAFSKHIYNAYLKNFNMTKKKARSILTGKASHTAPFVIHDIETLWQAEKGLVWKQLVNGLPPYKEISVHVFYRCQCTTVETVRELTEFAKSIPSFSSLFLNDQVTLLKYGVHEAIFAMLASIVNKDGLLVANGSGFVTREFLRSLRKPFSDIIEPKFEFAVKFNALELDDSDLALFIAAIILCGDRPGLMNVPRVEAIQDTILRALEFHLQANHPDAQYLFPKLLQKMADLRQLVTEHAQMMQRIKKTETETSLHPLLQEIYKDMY
The series can be described thus: Agonist activity at human PPARdelta measured by dual luciferase reporter gene assay.

Series [4] has as its system Mus musculus. The experiment in a line: Hypolipidemic activity in Triton1339W-induced hyperlipidemic ICR mouse model assessed as reduction in plasma TG level at 80 mg/kg, administered once daily for 5 days. In kind it is functional, organism-based. As to conditions: time 5.0 day.
Series [5] deals with Mus musculus. The series can be described thus: Hypolipidemic activity in Triton1339W-induced hyperlipidemic ICR mouse model assessed as reduction in plasma TC level at 80 mg/kg, administered once daily for 5 days. In kind it is functional, organism-based. The settings on record: time 5.0 day.
For series [6], the target named is T3, Peroxisome proliferator-activated receptor gamma (Homo sapiens, UniProt P37231).
T3 sequence (P37231 whole entry): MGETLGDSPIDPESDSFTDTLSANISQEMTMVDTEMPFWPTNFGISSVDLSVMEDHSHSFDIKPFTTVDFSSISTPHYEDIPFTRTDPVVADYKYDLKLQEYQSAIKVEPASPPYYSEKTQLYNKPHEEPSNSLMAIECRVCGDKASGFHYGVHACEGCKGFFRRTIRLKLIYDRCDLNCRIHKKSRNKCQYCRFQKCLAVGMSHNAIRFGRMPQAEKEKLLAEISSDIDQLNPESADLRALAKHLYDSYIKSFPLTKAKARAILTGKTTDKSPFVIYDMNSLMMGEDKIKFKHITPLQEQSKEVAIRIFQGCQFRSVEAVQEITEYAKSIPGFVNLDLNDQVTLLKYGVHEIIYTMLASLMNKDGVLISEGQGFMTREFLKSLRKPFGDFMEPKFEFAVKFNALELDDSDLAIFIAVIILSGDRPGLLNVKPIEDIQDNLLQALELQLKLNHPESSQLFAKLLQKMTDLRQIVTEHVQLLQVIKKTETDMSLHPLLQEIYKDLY
The series can be described thus: Agonist activity at human PPARgamma measured by dual luciferase reporter gene assay.

For series [7], the system named is Mus musculus. The series can be described thus: Anti-fibrotic activity in high-fat/high-sugar diet and CCl4-induced nonalcoholic steatohepatitis male C57BL/6 mouse assessed as decrease in COL1A1 mRNA expression at 100 mg/kg, po administered for 4 weeks. Type of series: functional, organism-based.
The subject of series [8] is Mus musculus. The experiment in a line: Protection against liver fibrosis in high-fat/high-sugar diet and CCl4-induced nonalcoholic steatohepatitis male C57BL/6 mouse assessed as decrease in collagen area at 100 mg/kg, po administered for 4 weeks. In kind it is functional, organism-based.
The nature of series [9]: Clearance in rat liver microsomes in presence of NADPH measured by LC/MS analysis. The settings on record: read-out: CLH. In kind it is ADME, Microsome.
Series [10] deals with Mus musculus. The series can be described thus: Anti-NASH activity in high-fat/high-sugar diet and CCl4-induced nonalcoholic steatohepatitis male C57BL/6 mouse assessed as decrease in hepatocyte ballooning score at 100 mg/kg, po administered for 4 weeks. In kind it is functional, organism-based.
Series [11] deals with Mus musculus. The experiment in a line: Anti-NASH activity in high-fat/high-sugar diet and CCl4-induced nonalcoholic steatohepatitis male C57BL/6 mouse assessed as decrease in lobular inflammation score at 100 mg/kg, po administered for 4 weeks. Type of series: functional, organism-based.
For series [12], the system named is Mus musculus. The series can be described thus: Protection against liver fibrosis in high-fat/high-sugar diet and CCl4-induced nonalcoholic steatohepatitis male C57BL/6 mouse assessed as decrease in alpha-SMA expression in liver at 100 mg/kg, po administered for 4 weeks. In kind it is functional, organism-based.
The subject of series [13] is Mus musculus. The series can be described thus: Anti-NASH activity in high-fat/high-sugar diet and CCl4-induced nonalcoholic steatohepatitis male C57BL/6 mouse assessed as decrease in F4/80 expression at 100 mg/kg, po administered for 4 weeks. In kind it is functional, organism-based.
The test system of series [14] is Mus musculus. The experiment in a line: Anti-NASH activity in high-fat/high-sugar diet and CCl4-induced nonalcoholic steatohepatitis male C57BL/6 mouse assessed as decrease in disease activity score at 100 mg/kg, po administered for 4 weeks. Type of series: functional, organism-based.
A short description of series [15]: Half-life in rat liver microsomes in presence of NADPH measured by LC/MS analysis. In kind it is ADME, Microsome.
For series [16], the system named is Mus musculus. The series can be described thus: Protection against CCl4-induced liver fibrosis in male C57BL/6 mouse assessed as decrease in hepatic hydroxyproline content at 250 mg/kg […]. Type of series: functional, organism-based.
In series [17] the test system is Mus musculus. The series can be described thus: Protection against CCl4-induced liver fibrosis in male C57BL/6 mouse assessed as decrease in collagen area in liver at 250 mg/kg measured by masson staining. In kind it is functional, organism-based.

Molecules are shown by their SMILES. Activity calls are given as the source filed them.

What is called EC50 is the midpoint of the concentration-response curve. One may read the half-life as the time needed for the level to fall by half in the phase considered.

Chain of Free fatty acid receptor 1 (O14842 whole entry): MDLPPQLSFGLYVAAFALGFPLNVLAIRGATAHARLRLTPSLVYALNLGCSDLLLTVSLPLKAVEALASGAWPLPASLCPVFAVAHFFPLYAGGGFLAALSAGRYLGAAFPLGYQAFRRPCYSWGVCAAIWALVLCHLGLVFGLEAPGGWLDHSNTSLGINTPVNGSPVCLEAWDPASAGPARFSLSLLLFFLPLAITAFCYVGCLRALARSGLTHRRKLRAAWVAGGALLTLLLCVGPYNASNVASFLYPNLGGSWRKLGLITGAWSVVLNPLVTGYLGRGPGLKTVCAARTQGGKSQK

Take `O=C(O)COc1ccc(COc2cccc(-c3nc4ccccc4s3)c2)cc1F`: the EC50 in [1] was 2.1 µM; in [2], 7.8 µM; in series [3], 10.2 µM.
Regarding `CCOc1ccc(/C=C/c2cc(OCC)cc(OCc3ccc(OCC(=O)O)c(F)c3)c2)cc1`, the EC50 in [1] was determined as 4.2 µM; in series [6], 22.6 µM; in [2], 12.9 µM; in series [3] it was 5.7 µM. Further, the outcome in the series on Mus musculus [4] and with Mus musculus [5] was Active.
`COc1ccc(/C=C/c2cc(OC)cc(OCc3ccc(OCC(=O)O)c(C)c3)c2)cc1`: the result in the series with Mus musculus [4] and in the series with Mus musculus [5] was Active. Further, the EC50 in [6] was 20.7 µM; in series [2], 7.6 µM; in series [3], 5.16 µM.
On to `COc1ccc2cc(-c3cccc(OCc4ccc(OCC(=O)O)c(F)c4)c3)ccc2c1`, for which the EC50 in [2] amounted to 10.5 µM; in series [3], 7.8 µM.
`COc1ccc(-c2cccc(OCc3ccc(OCC(=O)O)c(F)c3)c2)cc1`: in [1], the EC50 turned out to be 0.4 µM. Moreover, the result with Mus musculus [5] was Active.
On to `O=C(O)COc1ccc(COc2cc(/C=C/c3ccc(OCC4CC4)cc3)cc(OCC3CC3)c2)cc1F`, for which the result with Mus musculus [4] and in the series with Mus musculus [5] was Active. In addition, the EC50 in series [6] is 24.5 µM; in series [2], 10.3 µM; in [3], 8.37 µM.
With `O=C(O)COc1ccc(COc2cccc(-c3nc4cc(Cl)ccc4o3)c2)cc1F`, the EC50 in [1] was 6.8 µM; in [2] it was 10.8 µM; in series [3], 20.8 µM.
Regarding `COc1ccc(/C=C/c2cc(OC)cc(OCc3ccc(OCC(=O)O)cc3)c2)cc1`, the EC50 in [1] worked out at 10.3 µM; in series [6] it was 15.6 µM; in [2] it was 20.8 µM; in series [3], 8.75 µM. In addition, the result in the series with Mus musculus [4] and in the series with Mus musculus [5] was Active.
Consider `COc1ccc(/C=C/c2cc(OC)cc(OCCCCCCCC(=O)O)c2)cc1`, for which the outcome in the series on Mus musculus [7], in the series on Mus musculus [8], with Mus musculus [4], in the series with Mus musculus [10], in the series on Mus musculus [5] and with Mus musculus [11] was Active. Also, the outcome in the series with Mus musculus [12], with Mus musculus [13] and in the series on Mus musculus [14] was Active. Also, in series [9], the microsomal CLint was 72 µL/min/mg. The EC50 in series [1] was 1.8 µM; in series [6] it was 25.8 µM; in series [2], 7.5 µM; in [3], 6.5 µM. In addition, the half-life in [15] was 19.3 min.
Consider `COc1ccc(/C=C/c2cc(OC)cc(OCc3ccc(OC(C)(C)C(=O)O)c(F)c3)c2)cc1`, for which the outcome in the series on Mus musculus [4] and with Mus musculus [5] was Active. Also, the values for the EC50 in [6], in [2] and in [3] were 20.6 µM, 2.35 µM and 2.8 µM, respectively.
Consider `COc1ccc2ccc(-c3cccc(OCc4ccc(OCC(=O)O)c(F)c4)c3)cc2c1`, for which the EC50 came to 15.6 µM in series [2] and 10.8 µM in series [3].
Regarding `Cc1ccc2[nH]c(-c3cccc(OCCCCCCCC(=O)O)c3)nc2c1`, the EC50 in [6] came out at 10.2 µM; in [2] it was 6.3 µM.
On to `COc1ccc(/C=C/c2cc(OC)cc(OCc3ccc(OC(C)C(=O)O)c(F)c3)c2)cc1` (stereo not given), for which the result with Mus musculus [4] and in the series on Mus musculus [5] was Active. The EC50 is 18.2 µM in [6], 8.72 µM in series [2] and 4.5 µM in series [3].
As to `O=C(O)COc1ccc(COc2cccc(-c3ccc4cc(OCC5CC5)ccc4c3)c2)cc1F`, the EC50 in [2] worked out at 9.6 µM; in series [3], 7.2 µM.
On to `Cc1ccc(=O)n(-c2ccccc2)c1`, for which the result in the series with Mus musculus [16] and in the series on Mus musculus [17] was Active.

For the origin of these results see ChEMBL document CHEMBL5154671 (Eur J Med Chem, 2022).
